Results: patent publication US20130096067A1, “DROSOPHILA TUMOR STEM CELL MODEL AND USES THEREOF” (priority 2011, published 2013)
“Also recorded” adds a separate entry of the source. Where a name gives a salt, the structure may show the parent alone. Read-outs that look alike come from different tables or passages of the source.

Columns and labels:
Raf-1^gof TSCs = experiment: Visualization of Raf-1^gof tumors in dissected guts by esg-GFP and Delta staining; type: in vivo, Drosophila
Procedure: Samples were incubated 1 hour in 5% NDS blocking solution, overnight in primary antibody, 1.5 hours in secondary antibody and 6 minutes in DAPI. They were rinsed and washed between steps in PBS containing 0.1% Triton X-100. Finally they were placed in mounting media (Vectashield) and mounted for microscopy. Images were taken with a Leica TCS SP2 confocal microscope.
(§1) Primary screening drugs were provided by the Harvard Institute for Chemistry and Cell Biology (ICCB; 480 known bioactives library), and the National Cancer Institute (NCI) Drug Therapeutics Program (library of 88 FDA-approved oncology drugs). Secondary assays were conducted with freshly prepared 10 mM stocks that were diluted 1:100 in fly food, giving a final concentration of 100 μM.
(§2) Drugs were dissolved in 100% DMSO. Drugs were mixed 1:100 with molten fly food at 37° C. and then aliquoted to either 5 mL tubes or 1 mL wells of a 96-well plate.
Control flies were treated with DMSO.
Flies were treated with DMSO alone as a control.

[1] = tested on: Raf-1^gof intestinal tumors; conditions: for Fold: luciferase relative to DMSO, fed three consecutive days in vials; for Log2 (fold) (luciferase activity, log2 of the fold difference relative to DMSO controls) / Fold (luciferase activity, fold difference relative to DMSO controls): screen of 480 ICCB compounds in vials, compounds fed to flies with one-day old Raf-1^gof tumors, esg-Gal4 luciferase
JAK-STAT signaling = experiment: upd3-GFP reporter for JAK-STAT signaling in wild-type guts; type: in vivo, Drosophila; conditions: EC cells
Procedure: (§3) Flies were treated with DMSO alone as a control. […].
(§4) For example, subjecting the fly intestine to the detergent dextran sulfate sodium (DSS) or to pathogen infection, induces ECs to activate the JNK stress-related pathway and to express IL-6 related cytokines (Unpaireds/Upds) (Jiang et al., 2009; Buchon et al., 2009; Apidianakis et al., 2009). The Upds activate JAK-STAT signaling in the ISCs, driving them to overproliferate. To determine if these same pathways are activated in response to FDA anti-cancer drugs, the puc-lacZ reporter was used to monitor JNK signaling, and a Gal-4 enhancer trap to monitor expression of Upd-3, the Upd cytokine preferentially expressed in the gut in response to injury (Jiang et al., 2009).

JNK signaling = experiment: puc-LacZ reporter for JNK signaling in wild-type guts; type: in vivo, Drosophila; conditions: EC cells
Procedure: as §3, §4

ISCs/EBs = experiment: Drug-induced ISC/EB expansion in animals with loss-of-function JAK allele hop^msv1; type: in vivo, Drosophila; conditions: loss-of-function JAK allele hop^msv1 vs wild type
Procedure: FIG. 7. FDA anti-cancer drugs that block TSCs can have differential effects on the microenvironment and growth of wild-type ISCs. […] Flies were treated with DMSO alone as a control. […]. […] C) The expansion of ISCs/EBs in response to bortezomib and paclitaxel is less severe in animals with a loss-of-function JAK allele, hop^msv1.
Controls: yw,yv;attP2 (Ni et al., 2008). Gal4 drivers and reporters: esg-Gal4,UAS-GFP,tub-Gal80^ts (Micchelli et al., 2006), UAS-luc2(luciferase at attP2) (Markstein et al., 2008), puc-lacZE69 (Ring et al., 1993), #42685}, upd3-Gal4 (Agaisse et al., 2003). UAS constructs: UAS-Raf-1^gof (Brand et al., 1994), UAS-raptor-RNAi (TRIP stock JF01088), UAS-Dsor-RNAi (TRIP stock JF01697), UAS-Akt-RNAi (TRIP stock HMS00007). UAS-NotchDN (Jacobsen 1998). Mutants: hop^msv1 (Perrimon et al., 1986). Using the above stocks, an esg-Gal4 stock was created with both an inducible GFP reporter and an inducible Luciferase reporter: esg-Gal4,UAS-GFP,tub-Gal80^ts; UAS-luc2. For the chemical screens the following cross was performed to create Raf-1^gof intestinal tumors marked with GFP and luciferase: UAS-Raf-1^gof X esg-Gal4,UAS-GFP,tub-Gal80^ts; UAS-luc2. […]

[2] = tested on: Raf-1^gof intestinal tumors; experiment: Luciferase screen of FDA-approved (NCI) drugs in 96-well plates, flies with Raf-1^gof intestinal tumors; type: in vivo, Drosophila; conditions: for Avg (3 + 6): average of Day 3 and Day 6 fold; for Log2 (fold): log2 of the Day 3 fold difference in luciferase relative to DMSO controls; for Day 3 Fold: luciferase activity relative to DMSO controls, single dose of drug for three days, 96-well plates; for Day 6 Fold: six-day protocol: single dose for three days, then another dose for three more days
Raf-1^gof tumor cells = experiment: esg-Gal4 luciferase assay in whole-fly lysates of control and drug-treated flies (validation and replicate assays); type: in vivo, Drosophila
Procedure: as §1, §2
Flies were anesthetized and transferred in pools of 3 to 96-well plates containing 100 μL of glo lysis buffer (Promega E2661) and homogenized with a multiple homogenizer (Burkard Scientific BS00253) for 3-5 minutes. The plates were then centrifuged for 5 minutes at 4,000 rpm, and the lysates were then transferred to new 96-well “master” plates. Firefly luciferase assays were conducted with 20 μL of lysate as specified by Promega. Luminescence was counted using the Molecular Devices Analyst GT plate reader.
To exploit the TSC model for in vivo chemical screens, a high-throughput method was developed to track tumor growth, using a luciferase reporter assay instead of the conventional method of visualizing tumors with GFP. […] The esg-Gal4 driver was employed to express luciferase in the TSCs and the effects of various compounds were compared by measuring luciferase in homogenates of control and drug-treated flies.

[3] = esg-GFP in dissected guts, DMSO control
[4] = Table 3 summary of hits, Screen ICCB
[5] = assessed three days later, averaged from multiple wells

Molecule | Fold [1, 4] [fold] | Log2 (fold) (luciferase activity, log2 of the fold difference relative to DMSO controls) ([1]; assessed three days later) | Fold (luciferase activity, fold difference relative to DMSO controls) [1, 5] | expression of upd3-GFP / Upd-3 reporter (JAK-STAT signaling) (JAK-STAT signaling) | expression of puc-lacZ reporter (JNK signaling) (JNK signaling) | Avg (3 + 6) [2] [fold] | Log2 (fold) [2] | Day 3 Fold [2] [fold] | Day 6 Fold [2] [fold] | also measured
Nc1ncnc2c1c(I)cn2[C@@H]1O[C@H](CO)[C@@H](O)[C@H]1O [5-iodotubercidin, reference compound] | 0.530 | −0.917 | 0.530 |  |  |  |  |  |  | effect on Raf-1^gof tumor cells / tumor growth (Raf-1^gof TSCs; [3]): reduced tumor growth
CC(C)C[C@H](NC(=O)[C@H](Cc1ccccc1)NC(=O)c1cnccn1)B(O)O [Bortezomib] |  |  |  | inducing expression of puc-lacZ (red, upper panel) and upd3-GFP; also recorded: induced expression of both the JNK puc-lacZ reporter and the Upd-3 reporter | inducing expression of puc-lacZ; also recorded: induced expression of both the JNK puc-lacZ reporter and the Upd-3 reporter | 0.607 | −2.013 | 0.248 | 0.967 | expansion of ISCs/EBs in hop^msv1 animals (ISCs/EBs): less severe
C[C@H](NC(=O)Cc1cc(F)cc(F)c1)C(=O)N[C@H]1N=C(c2ccccc2)c2ccccc2N(C)C1=O [Compound E, reference compound] | 2.696 |  |  |  |  |  |  |  |  | effect on Raf-1^gof tumor cells / tumor growth (Raf-1^gof TSCs; [3]): augmented tumor growth; also recorded: increased tumor growth; also recorded: dramatic expansion of the tumor; effect on luciferase activity (Raf-1^gof tumor cells; whole-animal extracts vs DMSO controls): augmented tumor growth and luciferase activity; Log2 (fold) of luciferase activity relative to DMSO controls ([1]; ICCB compounds fed in vials to flies with one-day old Raf-1^gof tumors, assessed three days later): 1.431; Fold (luciferase activity relative to DMSO controls) ([1]; ICCB compounds fed in vials to flies with one-day old Raf-1^gof tumors, assessed three days later, averaged from multiple wells): 2.696 fold; Log2 (fold) [1, 4]: 1.431
CN(Cc1cnc2nc(N)nc(N)c2n1)c1ccc(C(=O)N[C@@H](CCC(=O)O)C(=O)O)cc1 [Methotrexate] | 0.160 | −2.648 | 0.160 | no effect on the expression of any of the reporters | no effect on the expression of any of the reporters | 0.094 | −3.231 | 0.107 | 0.081 | expression of upd3-GFP / Upd-3 reporter (JAK-STAT signaling) (JAK-STAT signaling; listed as methotrexate): expressed neither reporter; expression of puc-lacZ reporter (JNK signaling) (JNK signaling; listed as methotrexate): expressed neither reporter
CC(=O)O[C@H]1C(=O)[C@@]2(C)[C@H]([C@H](OC(=O)c3ccccc3)[C@]3(O)C[C@H](OC(=O)[C@H](O)[C@@H](NC(=O)c4ccccc4)c4ccccc4)C(C)=C1C3(C)C)[C@]1(OC(C)=O)CO[C@@H]1C[C@@H]2O [Paclitaxel] | 0.274 | −1.870 | 0.274 | inducing expression of puc-lacZ (red, upper panel) and upd3-GFP; also recorded: induced expression of both the JNK puc-lacZ reporter and the Upd-3 reporter | inducing expression of puc-lacZ; also recorded: induced expression of both the JNK puc-lacZ reporter and the Upd-3 reporter | 0.695 | −1.808 | 0.285 | 1.104 | expansion of ISCs/EBs in hop^msv1 animals (ISCs/EBs): less severe
O=C1CCC(N2C(=O)c3ccccc3C2=O)C(=O)N1 (stereo not shown) [Thalidomide] |  | −0.252 | 0.839 |  |  | 1.008 | 0.136 | 1.099 | 0.918 | 
CC[C@]1(O)C[C@@H]2CN(CCc3c([nH]c4ccccc34)[C@@](C(=O)OC)(c3cc4c(cc3OC)N(C)[C@H]3[C@@](O)(C(=O)OC)[C@H](OC(C)=O)[C@]5(CC)C=CCN6CC[C@]43[C@@H]65)C2)C1 [Vinblastine sulfate] | 0.204 | −2.290 | 0.204 |  |  | 0.158 | −2.445 | 0.184 | 0.131 | 
COc1cc2c(c(OC)c1OC)-c1ccc(OC)c(=O)cc1[C@@H](NC(C)=O)CC2 [colchicine] |  |  |  |  |  |  |  |  |  | effect on Raf-1^gof tumor cells / tumor growth (Raf-1^gof TSCs; in vivo): eliminated virtually all of the tumor cells; also recorded: eliminates virtually all of the Raf-1^gof tumor cells; also recorded: virtually all of the tumor cells were lost; effect on luciferase activity (Raf-1^gof tumor cells; in vivo): steep drop in luciferase activity; loss of luciferase activity (Raf-1^gof tumor cells; in vivo): about 80%
Bleomycin |  |  |  | induced JNK and JAK-STAT signaling | induced JNK and JAK-STAT signaling | 0.521 | 0.060 | 1.043 | 0.000 | effect on Delta positive TSCs (Raf-1^gof TSCs; Delta staining of dissected guts): failed to block TSCs
